Four compounds from patent US7723071B2 (priority 1992, dated 2010) can be followed below.

Peptide text beside a SMILES is read from it.

In assay [1] the test system is opiate receptors.
Excerpt: The purification of mono-iodinated from di-iodinated and non-iodinated DADLE by the HPLC step yields a ligand with very high specific activity (approximately 2000 Ci/mmol).
In assay [2] the target is DOR-1 clone (delta opioid receptor) (Mus musculus, UniProt P32300, V68C).
Assay [3] addresses receptor encoded by the DOR-1 clone (delta opioid receptor) (Mus musculus, UniProt P32300, V68C).
Assay [4] deals with T1, DOR-2 (mMOR-1) mu receptor (Mus musculus, UniProt P42866, H54D/R258Q/R47P/S53N/V245G).
T1 construct: expressed in transfected cells
T1 sequence (P42866 whole entry R47P/S53N/H54D/V245G/R258Q): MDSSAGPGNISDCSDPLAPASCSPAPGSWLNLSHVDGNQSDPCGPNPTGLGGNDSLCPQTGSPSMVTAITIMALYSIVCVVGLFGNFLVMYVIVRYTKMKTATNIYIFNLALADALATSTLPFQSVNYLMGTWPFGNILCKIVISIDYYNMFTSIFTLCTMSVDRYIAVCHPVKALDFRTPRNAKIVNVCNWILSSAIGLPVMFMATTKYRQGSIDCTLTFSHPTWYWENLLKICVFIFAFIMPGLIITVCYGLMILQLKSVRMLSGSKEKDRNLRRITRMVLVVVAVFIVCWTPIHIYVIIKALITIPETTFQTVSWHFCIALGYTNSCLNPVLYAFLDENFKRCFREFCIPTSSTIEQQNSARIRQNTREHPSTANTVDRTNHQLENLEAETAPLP
In kind it is binding, murine.

Chain of receptor encoded by the DOR-1 clone (delta opioid receptor) (P32300 whole entry V68C): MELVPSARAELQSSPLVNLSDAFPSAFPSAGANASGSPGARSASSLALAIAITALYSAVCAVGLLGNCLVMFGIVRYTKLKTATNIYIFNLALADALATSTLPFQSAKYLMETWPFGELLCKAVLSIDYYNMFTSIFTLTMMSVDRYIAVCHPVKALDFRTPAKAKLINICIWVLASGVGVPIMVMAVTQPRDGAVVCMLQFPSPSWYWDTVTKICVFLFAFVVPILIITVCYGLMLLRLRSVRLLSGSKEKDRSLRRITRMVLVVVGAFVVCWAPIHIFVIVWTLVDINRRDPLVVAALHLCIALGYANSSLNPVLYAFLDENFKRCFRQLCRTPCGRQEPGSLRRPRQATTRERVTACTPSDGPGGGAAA
Chain of DOR-1 clone (delta opioid receptor) (P32300 whole entry V68C): as above

Regarding “mono-^125I-2dAla, 5dLeu enkephalin [^125I-DADLE]”, in assay [1], the “binding affinity compared with DADLE” value was “slightly lower”.

Turning to `C[C@@H](NC(=O)[C@@H](N)Cc1ccc(O)cc1)C(=O)NCC(=O)N(C)[C@@H](Cc1ccccc1)C(=O)NCCO` [DAGO, D-Alka^2-N-MePhe^4-Gly-ol^5-enkephalin], the “displacement of 125I-DADLE binding” value in assay [2] was “did not displace”. In addition, the “displacement of 3H-diprenorphine” value in assay [3] is on record as “Only weak displacement”. In assay [4], the “displacement of 3H-DPN” value was “displacement of ^3H-DPN by nanomolar concentrations”.

In the case of `NC(=O)[C@@H]1CCCN1C(=O)[C@H](Cc1ccccc1)NC(=O)[C@@H]1CCCN1C(=O)[C@@H](N)Cc1ccc(O)cc1` [morphiceptin] (H-YPFP-NH2), the “displacement of 3H-DPN” value in assay [4] was “displacement of ^3H-DPN by nanomolar concentrations”.

As for `CN1CC[C@]23CCCC[C@H]2[C@H]1Cc1ccc(O)cc13` [levorphanol], in assay [2], the “displacement of 125I-DADLE binding” value is on record as “did displace”. Besides, in assay [3], the “displacement of 3H-diprenorphine” value is “displaced”; the “displacement of 3H-diprenorphine, rank in decreasing order of affinity” value was “in decreasing order of affinity, was observed with diprenorphine, etorphine, levorphanol and morphine”.
